{"source": "patent US20070077583A1", "about": "“Alpha enolase-directed diagnostics and therapeutics for cancer and chemotherapeutic drug resistance” (Aurelium BioPharma, Inc., priority 2005, published 2007)", "key": {"H460 cells": {"tested_on": "H460 cells", "experiment": "MTT cytotoxicity assay, H460 cells transfected with α-enolase siRNA", "type": "cell-based, human", "description": "To establish the effectiveness of α-enolase silencing on other cancer cell types, H460 non-small cell lung cancer cells were challenged with a chemotherapeutic drug, MTT cytotoxicity assays were carried out and survival curves plotted as shown in FIG. 17."}, "SW-480 cells": {"tested_on": "SW-480 cells", "experiment": "cells", "type": "cell-based, human", "description": "The colorectal adenocarcinoma cell line SW-480 was treated with α-enolase-directed siRNA using the procedures described above."}, "α-enolase": {"tested_on": "α-enolase", "experiment": "Western blot of α-enolase protein expression after siRNA transfection", "type": "cell-based, human", "conditions": "for reduction of α-enolase expression: A549 cells; for decrease of levels of expression of α-enolase: MDA-MB-435 cells", "description": "Western blot analysis utilizing anti-α-enolase antibodies was performed on MOLT4 cell extracts fractionated on SDS-PAGE (FIG. 3). Cells extract were prepared according to the protocol detailed in Example 1. […] Resolved proteins were electrophoretically transferred onto nitrocellulose membranes (Hybond, Amercham Pharmacia Biotech) for 1 hour. […] After blocking the membranes with 5% non-fat milk in 1×PBS overnight at 4° C., all antibody-binding reactions were performed in 5% non-fat milk in 1×PBS for 2 hours at room temperature for primary antibodies and for 1 hour for secondary antibodies coupled to HRP. The signal was detected by the Supersignal west Pico chemiluminescent substrate (Pierce, Rockford, Ill., USA). Two polyclonal antibodies against α-enolase were used: a goat antibody against human α-enolase (Santa Cruz Biotechology, Inc., Santa Cruz, Calif.); rabbit polyclonal antibody against human α-enolase (NNE) (MorphoSys AG, Munich, Del.). Membranes were subsequently blotted with anti-GAPDH (Novus Biologicals, Inc., Littleton, Colo.) or anti-prohibitin mouse monoclonal antibody (Lab Vision Corp., Fremont, Calif.) as controls for protein loading. To establish the importance of α-enolase to the expression of the drug-resistant phenotype in cell lines, α-enolase expression was silenced using RNAi. Briefly, the following siRNA duplexes targeting the human α-enolase mRNA were designed and purchased either from Ambion (Austin, Tex.) or Invitrogen (Carlsbad, Calif.). […] [NT] ID NO: 2) targeting the mRNA sequence corresponding to nucleotides […] from the start of the transcript (Ref Seq ID number: NM-001428). […] In another tube, […] of Oligofectamine reagent (Invitrogen, Carlsbad, Calif.) is mixed with […] of Opti-MEM. The two solutions are combined and mixed gently by inversion and incubated for 20 min. at RT. […] The next day the transfected cells were trypsinized and seeded in 6 or 96-well plates and further incubated for the indicated amount of time (assay dependent) before further analysis."}, "MCF-7 cells": {"tested_on": "MCF-7 cells", "experiment": "Clonogenic assay, MCF-7 cells", "type": "cell-based, human", "conditions": "adriamycin-resistant MCF-7 cells, without drug", "description": "Utilizing a clonogenic assay generated additional information concerning cell viability after drug-resistant cells were exposed to siRNA and chemotherapeutics. […] Taxol or Vincristine was added at IC10 or IC50 concentrations determined from MTT experiments for MCF-7 cells. […] The cells were further incubated for an additional 7 days. At the end of the incubation, the cells were stained with addition of a 0.5% Methylene Blue solution in 50% ethanol for 15 min. at RT. The staining solution was then removed and plates were dried overnight. The plates were scanned and the stained colonies were solubilized in 0.1% SDS. The absorbance of the resulting solution was determined by spectrophotometry at 660 nm."}, "A549 cells [1]": {"tested_on": "A549 cells", "experiment": "Transwell filter cell invasion assay, A549", "type": "cell-based, human", "description": "Transwell filter chamber assays were performed using a Chemicon QCM 96-well invasion kit according to the manufacturer's instructions (Chemicon International, Inc., Temecula, Calif.). Eno-1 and control siRNA transfected cells were harvested 2 days post-transfection, resuspended in media without serum and seeded in 96-well Matrigel-coated transwell filter plates at 50,000 cells per well. Medium with 10% serum was used as a chemo-attractant in a feeder tray. The inserts were placed into the feeder tray, and the cells were subsequently incubated for 16 hours at 37° C. in an incubator containing a 5% CO2 atmosphere. Cells that invaded through the filter to the bottom tray were quantitated using the CyQUANT-GR dye according to the manufacturer's instructions (Molecular Probes, Eugene, Oreg.).\nThese assays test the ability of a cell to move across membranes, which is a hallmark of metastatic potential. To confirm the results shown in FIGS. 27A and 27B, the highly metastatic cell line MDA-MB-435 was transfected with a vector expressing the α-enolase siRNA and subjected to the transwell filter assay (FIGS. 28 and 29, respectively)."}, "MDA-435 cells": {"tested_on": "MDA-435 cells", "experiment": "Annexin-V FITC staining, MDA-435", "type": "cell-based, human", "description": "The effect of Eno-1 siRNA silencing on tumor cell growth was even more dramatic in the MDA-435 breast cancer cells, where the viability in cells that were transfected with Eno-1 siRNA dropped to only about 17% of the control level (FIG. 40). In these cells the levels of silencing of α-enolase were also quite high, reaching 14% of the α-enolase levels present in the control transfected cells 6 days post-transfection (FIG. 41).\nApoptotic cells were measured following incubation with siRNAs. This assay was performed to determine the number of cells that were now susceptible to chemotherapeutic drugs. Cells transfected with siRNA were seeded in Lab-Tek 16-well chamber slides (Electron Microscopy Sciences, Hatfield, Pa.) at 10^4 cells/well 48 hrs post-transfection. Apoptosis was determined 16 hours later by annexin-V staining using the Annexin-V FLUOS kit (Roche, Ltd., Basel, CH) following the manufacturer's instructions. Slides were observed under a fluorescence microscope and images were taken using an Olympus digital camera and the Q-Capture software (QImaging, Burnaby, BC, CA)."}, "A549 cells [2]": {"tested_on": "A549 cells", "experiment": "MTT cytotoxicity assay, A549 cells transfected with α-enolase siRNA", "conditions": "A549 cells", "protocol": "Small interfering RNA transfected cells were seeded in triplicate into 96-well plates at 5×10^3 cells/well 48 hrs post-transfection. The cells were incubated for an additional 16-24 hrs before they were exposed to increasing concentrations of cytotoxic drugs. […] Appropriate dilutions were made in the respective media for each cell line. Following addition of drugs, incubation was continued for an additional 72 hrs. Twenty-five ml of MTT dye (5 mg/ml) were added into each well and the plate was further incubated at 37° C. for 4 hrs. The dye was solubilized with 10% Triton X-100, 0.01 N HCl and further incubated at 37° C. in the dark for 30 min. Cell viability was determined by measure of absorption at 570 nm in a Wallac multiwell plate reader (PerkinElmer, Inc., Boston, Mass.). The averages of triplicate wells were plotted using the Prism software (GraphPad Software, Inc., San Diego, Calif.).\nTo investigate if α-enolase is broadly involved in mediating drug resistance to microtubule targeting agents, non-small cell lung cancer cell lines A549 and H460, respectively, were transfected with α-enolase siRNA and enolase expression and viability were assessed."}}}
{"substance": "α-enolase siRNA: siRNA duplex targeting human α-enolase mRNA; sense 5′-GGCUGUUGAGCACAUCAAUtt-3′ (SEQ ID NO: 1), antisense SEQ ID NO: 2; Ambion (antisense AUUGAUGUGCUCAACAGCC; bought from Ambion, sense has tt overhang, further chemistry not given here)", "values": [{"measurement": "cell viability after siRNA alone", "setting": "H460 cells", "value": "less viable"}, {"measurement": "decrease in cell viability", "setting": "SW-480 cells", "value": 50, "unit": "%"}, {"measurement": "reduction of α-enolase expression", "setting": "α-enolase; six days post-transfection", "value": 90, "unit": "%"}, {"measurement": "reduction of α-enolase expression", "setting": "α-enolase; three days post-transfection", "value": 77, "unit": "%"}, {"measurement": "α-enolase expression", "setting": "α-enolase; Detroit fibroblast cells, three days of treatment", "value": "significant down-regulation"}, {"measurement": "α-enolase level relative to control transfected cells", "setting": "α-enolase; MDA-435 cells, 6 days post-transfection", "value": 14, "unit": "%"}, {"measurement": "decrease of levels of expression of α-enolase", "setting": "α-enolase; six days", "value": 92, "unit": "%"}, {"measurement": "decrease of levels of expression of α-enolase", "setting": "α-enolase; three days", "value": 67, "unit": "%"}, {"measurement": "decrease of α-enolase protein expression", "setting": "α-enolase; variety of cell lines", "value": "50-80%"}, {"measurement": "viability less than that of siRNA untreated cells", "setting": "MCF-7 cells", "value": 65, "unit": "%"}, {"measurement": "invasion across membranes", "setting": "A549 cells [1]", "value": "reduced the invasion"}, {"measurement": "apoptosis by annexin-V FITC staining", "setting": "MDA-435 cells", "value": "increase in apoptosis"}, {"measurement": "cell viability after siRNA alone", "setting": "A549 cells [2]", "value": "decreased the viability"}]}
